Four compounds from patent publication US7122528B2, “Use of 5-substituted nucleosides and/or prodrugs thereof in the resistance-free treatment of infectious diseases” (RESPROTECT GmbH, priority 2001, dated 2006) can be followed below.

Read-outs that look alike come from different tables or passages of the source.

For data set [1], the system named is Escherichia coli J53 (RP4). The experiment in a line: Growth tests: adaptation (resistance development) to aminoglycoside antibiotic with or without BVDU. The format is cell-based. The source says:
Escherichia coli J53 was used as Gram-negative model organism in order to test the effectiveness of BVDU. This organism carries the naturally occurring plasmid RP4, on which resistances to Ampicillin, Tetracycline and Kanamycin are encoded.
The results are illustrated in FIGS. 1 and 2.

Data set [2] concerns aminoglycoside/BVDU-pretreated E coli J53 (RP4) strains. The experiment in a line: BVDU conditioned growth inhibition after aminoglycoside/BVDU pretreatment. The format is cell-based, Escherichia coli. On the procedure:
(§1) In order to determine the minimal inhibitory concentrations (MIC) of Kanamycin or Amikacin relative to aminoglycoside/BVDU-pretreated E coli J53 (RP4) strains, standard precultures were used which contained no additives in the culture medium (recovery phase). In addition, it was tested in comparative experiments to what extent the addition of BVDU to the antibiotic-free precultures changes the resistant spectrum of the strains.
In comparison therewith, the growth without antibiotic in the additive-free preculture corresponded to that of the untreated E. coli strain. The results are illustrated in FIGS. 7 and 8.

Data set [3] concerns Leidshmania donovanii. The experiment in a line: Prevention of methotrexate resistance development in Leishmania by gradual increase in MTX concentration. The format is cell-based. On the procedure:
Prevention of resistance development in Zooflagellates (Leishmania) by the simultaneous administration of the anti-recombinogenic 5-substituted nucleoside (E)-5-(2-bromovinyl)2′-deoxyuridines (BVDU) with methotrexate.
Methotrexate (MTX) resistant cells of Leidshmania donovanii were produced by gradual increase in the MTX concentrations of 5 to 10, of 10 to 50 and of 50 to 100 μm MTX. 5×10^6 cells/ml respectively were seeded in the growth medium. The cells were diluted again to 5×10^6 cells/ml for each new batch. The cells were then constantly subjected to the next higher MTX concentration when the cell division rate of the MTX-subjected cells had stabilised to the control level. […] The result of this test can be seen in a simplified version in FIGS. 9 and 10.

Data set [4] relates to E. coli J53 (RP4) strains. Nature of the data set: Determination of minimal inhibitory concentrations (MIC) of Kanamycin or Amikacin on starter, adapted and BVDU-pretreated strains. The format is cell-based, Escherichia coli. The conditions noted are these: for MIC: Escherichia coli.
Text: In order to determine the minimal inhibitory concentrations (MIC), precultures were used initially for which antibiotic-free culture medium had been inoculated directly from frozen glycerine cultures. […] However even higher antibiotic concentrations still led to the growth of the inoculum. However, the growth inhibition prevented a larger cell density in the bacteria culture being reached.
In order to test the stability of the specific resistance features of the E. coli strains, the MIC determination was repeated. The already tested precultures were again absorbed for this purpose in antibiotic-free culture medium and tested for their Kanamycin resistance. The resistance spectra of the starter strain and of the strain adapted to 64 μg/ml remained unchanged. […] The results are illustrated in FIG. 4.
The results can be deduced from FIG. 6.
as §1

The mark [5] stands for this setting: 1 μg/ml BVDU added simultaneously with MTX.

With `O=c1[nH]c(=O)n([C@H]2C[C@H](O)[C@@H](CO)O2)cc1/C=C/Br` [BVDU, (E)-5-(2-bromovinyl)-2-deoxyuridines], the “effect on resistance development/adaptation to Kanamycin” value in data set [1] (BVDU 1 μg/ml in presence of Kanamycin 64 μg/ml, E. coli J53 (RP4)) is given as “inhibition of this resistance development/adaptation”. Also, in data set [1] (BVDU 2 μg/ml in presence of Amikacin 0.25 μg/ml, E coli J53 (RP4)), the “effect on adaptation to Amikacin” value was “inhibition of this adaptation”. Further, the “growth of aminoglycoside/BVDU-pretreated E. coli strains in the absence of the antibiotic” value in data set [2] (BVDU 1 or 2 μg/ml in the preculture or/and 0.04–0.05 μg/ml in the MIC batches) was “sustained restriction of the growth”. In addition, in data set [2] (no pretreatment), the “effect of BVDU without pretreatment (antibiotic+BVDU)” value is “no effect” and the “toxicity of BVDU without pretreatment” value is “not toxic”. For the same compound, in data set [3] (setting [5]), the “cell division rate relative to control level” value is “never reached the control level” and the “resistance development to MTX treatment” value was “no resistance to the treatment”.
Consider `CN(Cc1cnc2nc(N)nc(N)c2n1)c1ccc(C(=O)N[C@@H](CCC(=O)O)C(=O)O)cc1` [MTX, Methotrexate], for which the “passages until cell division rate stabilised to the control level” value in data set [3] (MTX alone, steps 5 to 10, 10 to 50, 50 to 100 μm MTX) was “approximately three to four passages”.
With `NCC[C@H](O)C(=O)N[C@@H]1C[C@H](N)[C@@H](O[C@H]2O[C@H](CN)[C@@H](O)[C@H](O)[C@H]2O)[C@H](O)[C@H]1O[C@H]1O[C@H](CO)[C@@H](O)[C@H](N)[C@H]1O` [Amikacin], the “adaptation, i.e. resistance development, to the antibiotic” value in data set [1] (Amikacin 0.25 μg/ml alone, E coli J53 (RP4)) is “slow adaptation, i.e. resistance development”. For the same compound, in data set [4] (strain which had become resistant to 0.25 μg/ml Amikacin, read-out: MIC of Amikacin), the MIC was found to be 2 µg/mL. In addition, in data set [4] (strain grown in the presence of 2 μg/ml BVDU (no resistance to 0.25 μg/ml Amikacin)), the “Amikacin concentration from which growth inhibition was shown” value came to 0.125 µg/mL. Besides, the “increase of Amikacin MIC relative to the starter strain” value in data set [4] (strain which had become resistant to 0.25 μg/ml Amikacin) was “eight times increased”.
For `NC[C@H]1O[C@H](O[C@H]2[C@H](O)[C@@H](O[C@H]3O[C@H](CO)[C@@H](O)[C@H](N)[C@H]3O)[C@H](N)C[C@@H]2N)[C@H](O)[C@@H](O)[C@@H]1O` [Kanamycin], the MIC was found to be 32 µg/mL in data set [4] (strain pretreated with 64 μg/ml Kanamycin + 1 μg/ml BVDU, repeated MIC determination, read-out: Kanamycin concentration from which growth of the inoculum was completely prevented (MIC)) and 128 µg/mL in data set [4] (strain which had become resistant to 64 μg/ml Kanamycin, read-out: MIC of Kanamycin). The “Kanamycin concentration from which growth inhibition was shown” value in data set [4] (strain grown in the presence of 1 μg/ml BVDU (no resistance to 64 μg/ml Kanamycin), first MIC determination) turned out to be 16 µg/mL.
